Several values for one entry are separate records, joined by “and”; a condition that tells them apart may be missing. Identical values can stand only once. Like-named read-outs stand apart in the source and are kept apart here.
Assays:
[1] = system: oxotremorine-induced body tremor in mice; assay: Oxotremorine antagonist assay (body tremor) in mice; format: in vivo; conditions: Mus musculus, ip, read-out: Oxot. Antagonist Tremor (ED50)
Procedure: Oxotremorine antagonist assays were performed on groups of six mice weighing 18-22 g. Each was dosed intraperitoneally with the test compound prepared in 0.25% methylcellulose and were placed in individual cages. Twenty minutes later the mice were injected subcutaneously with 0.5 mg/kg of oxotremorine dissolved in saline. Ten minutes later the mice were scored for body tremor. Doses of the compound under study began at 100 mg/kg and were decreased at a 0.5 log interval until no responders were obtained.

[2] = system: HCl-induced writhing in CF1 mice; assay: Analgesic activity, HCl writhing protection in mice; format: in vivo; conditions: Mus musculus, sc, 0.25 h, read-out: CNS Id (ED50 mg/kg) HCl Writh. Protect
Procedure: For determination of analgesic activity, the test compound was injected subcutaneously into a group of four CF1 mice. Thirty minutes later the mice were injected i.p. with 0.15% HCl, 10 ml./kg. Mice are then placed in plastic boxes and observed for fifteen minutes to record the number of animals failing to writhe.

[3] = molecular target: CNS cholinergic receptor; assay: Cholinergic receptor binding assay, tritiated oxotremorine M ligand; conditions: read-out: CNS Cholinergic Receptor Binding Assays Ki (nM) Oxotremorine
[4] = system: CNS cholinergic receptor; format: binding; conditions: for Ki ratio (Ki QNB/Ki oxotremorine M): QNB vs oxotremorine M binding; for cholinergic agonist / antagonist / partial agonist classification by Ki ratio: from Ki QNB/Ki oxotremorine M ratio; for Ki: tritiated quinuclidine benzylate, read-out: CNS Cholinergic Receptor Binding Assays Ki (nM) QNB
[5] = i.p. test compound, 20 min before oxotremorine 0.5 mg/kg s.c., mice
[6] = s.c. test compound, 30 min before 0.15% HCl i.p., CF1 mice

| Structure (SMILES) | ED50 [1, 5] | ED50 [2, 6] | Ki [3] | Ki ratio (Ki QNB/Ki oxotremorine M) [4] | cholinergic agonist / antagonist / partial agonist classification by Ki ratio [4] | Ki [4] | ED50 [1] | ED50 [2] |
| --- | --- | --- | --- | --- | --- | --- | --- | --- |
| CC(=O)N(C)C(C)C#CCN1CCCC1 (stereo not shown) [BM-5, reference compound] | 3.7 mg/kg | 4.4 mg/kg | – | – | – | – | – | – |
| O=C1CCCN1CC#CCn1ccnc1 [Compound 1, 1-[4-(1H-Imidazol-1-yl)-2-butynyl]-2-pyrrolidinone] | – | 0.4 mg/kg | 1.3 nM | > 100 | cholinergic agonists | 600 nM | > 100 mg/kg | – |
| Cc1nccn1CC#CCN1CCCC1=O [Compound 2, 1-[4-(2-Methyl-1H-imidazol-1-yl)-2-butynyl]-2-pyrrolidinone] | > 100 mg/kg | 0.1 mg/kg | 0.3 nM | < 10 | cholinergic antagonists | 3.8 nM | – | – |
| Cc1cncn1CC#CCN1CCCC1=O [Compound 3, 1-[4-(5-Methyl-1H-imidazol-1-yl)-2-butynyl]-2-pyrrolidinone] | – | 2.6 mg/kg | 3.2 nM and 3.3 nM | intermediate Ki ratios | cholinergic partial agonists | 64 nM and 79.8 nM | – | – |
| Cc1cn(CC#CCN2CCCC2=O)c(C)n1 [Compound 4, 1-[4-(2,4-Dimethyl-1H-imidazol-1-yl)-2-butynyl]-2-pyrrolidinone] | 54 mg/kg | – | 68 nM | – | – | 160 nM | – | > 50 mg/kg |
| CC1CCC(=O)N1CC#CCn1ccnc1 (stereo not shown) [Compound 5, 1-[4-(1H-Imidazol-1-yl)-2-butynyl]-5-methyl-2-pyrrolidinone] | 20.9 mg/kg | > 50 mg/kg | 23 nM | – | – | 171 nM | – | – |
| CC(C#CCn1ccnc1)N1CCCC1=O (stereo not shown) [Compound 6, 1-[4-(1H-Imidazol-1-yl)-1-methyl-2-butynyl]-2-pyrrolidinone] | 45 mg/kg | > 50 mg/kg | 33.5 nM | – | – | 566 nM | – | – |
| CCc1nccn1CC#CCN1CCCC1=O [Compound 7, 1-[4-(2-Ethyl-1H-imidazol-1yl)-2-butynyl]-2-pyrrolidinone] | 9.7 mg/kg | > 50 mg/kg | 29.1 nM | – | – | 56.9 nM | – | – |
| O=C1CCCN1CC#CCn1ccnc1Cl [Compound 8, 1-[4-(2-Chloro-1H-imidazol-1-yl)-2-butynyl]-2-pyrrolidinone] | > 100 mg/kg | – | 577 nM | – | – | – | – | – |
| Cc1cn(CC#CCN2CCCC2=O)cn1 [Compound 9, 1-[4-(4-Methyl-1H-imidazol-1-yl)-2-butynyl]-2-pyrrolidinone] | > 100 mg/kg | – | 10.3 nM | – | – | 377 nM | – | – |
| O=C1CCC(=O)N1CC#CCn1ccnc1 [Compound 10, 1-[4-(1H-Imidazol-1-yl)-2-butynyl]-2,5-pyrrolidinedione] | – | – | 23.5 nM | – | – | 634 nM | 25 mg/kg | – |
| Cc1cncn1CC#CCN1C(=O)CCC1=O [Compound 11, 1-[4-(5-Methyl-1H-imidazol-1-yl)-2-butynyl]-2,5-pyrrolidinedione] | – | – | 10.3 nM | – | – | 100 nM | 37 mg/kg | – |
| Br.Cc1cncn1CC#CC(C)N1CCCC1=O (stereo not shown) [Compound 12, 1-[4-(5-Methyl-1H-imidazol-1-yl)-1-methyl-2-butynyl]-2-pyrrolidinone hydrobromide] | 25 mg/kg | – | 5.2 nM | – | – | 16.8 nM | – | – |
| Cc1cncn1CC#CCN1C(=O)CCC1C (stereo not shown) [Compound 13] | 14 mg/kg | – | 1.7 nM | – | – | 11.6 nM | – | – |
| CC(=O)N(C)C(C)C#CCn1ccnc1 (stereo not shown) [Compound 14, N-[4-(1H-Imidazol-1-yl)-1-methyl-2-butynyl]-N-methylacetamide] | > 100 mg/kg | 0.9 mg/kg | 12 nM | – | – | 1500 nM | – | – |
| CC(=O)N(C)C(C)C#CCn1cnc(C)c1C (stereo not shown) [Compound 16, N-[4-(4,5-Dimethyl-1H-imidazol-1-yl)-1-methyl-2-butynyl]-N-methylacetamide] | 25.4 mg/kg | > 50 mg/kg | 42 nM | – | – | 79 nM | – | – |

| Structure (SMILES) | ED50 [1, 5] | ED50 [2, 6] | Ki [3] | Ki ratio (Ki QNB/Ki oxotremorine M) [4] | cholinergic agonist / antagonist / partial agonist classification by Ki ratio [4] | Ki [4] | ED50 [1] | ED50 [2] |
| --- | --- | --- | --- | --- | --- | --- | --- | --- |
| CC(=O)N(C)C(C)C#CCn1cc(C)nc1C (stereo not shown) [Compound 17, N-[4-(2,4-Dimethyl-1H-imidazol-1-yl)-1-methyl-2-butynyl]-N-methylacetamide] | 80 mg/kg | > 50 mg/kg | 130 nM | – | – | 180 nM | – | – |
| CC(=O)N(C)C(C)C#CCn1c(C)cnc1C (stereo not shown) [Compound 18, N-[4-(2,5-Dimethyl-1H-imidazol-1-yl)-1-methyl-2butynyl]-N-methylacetamide] | 14.2 mg/kg | – | 6.3 nM | – | – | 8.5 nM | – | – |
| CC(=O)N(C)CC#CCn1ccnc1 [Compound 19, N-[4-(1H-Imidazol-1-yl)-2-butynyl]-N-methylacetamide] | > 100 mg/kg | – | 1.9 nM | – | – | – | – | – |
| CC(=O)N(C)CC#CCn1cncc1C [Compound 20, N-[4-(5-Methyl-1H-imidazol-1-yl)-2-butynyl]-N-methylacetamide] | > 100 mg/kg | – | 3.6 nM | – | – | 172 nM | – | – |
| CC(=O)N(C)C(C)C#CCn1cncc1C (stereo not shown) [Compound 21, N-[4(5-Methyl-1H-imidazol-1-yl)-1-methyl-2-butynyl]-N-methylacetamide] | 80 mg/kg | – | 10 nM | – | – | 184 nM | – | – |
| CC(=O)NCC#CCn1ccnc1 [Compound 22, N-[4-(1H-Imidazol-1-yl)-2-butynyl]acetamide] | > 100 mg/kg | – | 187 nM | – | – | – | – | – |
| CC(=O)NCC#CCn1cncc1C [Compound 23, N-[4-(5-Methyl-1H-imidazol-1-yl)-2-butynyl]acetamide] | > 100 mg/kg | – | 213 nM | – | – | – | – | – |
| Cc1cncn1CC#CCN(C)C(=O)N(C)C [Compound 25, [4-(5-Methyl-1H-imidazol-1-yl)-2-butynyl]trimethyl urea] | > 100 mg/kg | – | 82.1 nM | – | – | – | – | – |
| COC(=O)N(C)CC#CCn1ccnc1 [Compound 26, Methyl [4-(1H-imidazol-1-yl)-2-butynyl]methylcarbamate] | > 100 mg/kg | – | 120 nM | – | – | – | – | – |
| COC(=O)N(C)CC#CCn1cncc1C [Compound 27, Methyl [4-(5-methyl-1H-imidazol-1-yl)-2-butynyl]methyl carbamate] | > 100 mg/kg | – | 200 nM | – | – | – | – | – |
| C(#CCn1ccnc1)CN1CCCC1 [Compound 28, 1-[4-(Pyrrolidinyl)-2-butynyl]-1H-imidazole] | – | – | – | – | – | – | > 100 mg/kg | 3.1 mg/kg |
| CN(C)CC#CCn1ccnc1 [Compound 29, 4-(1H-Imidazol-1-yl)-N,N-dimethyl-2-butyn-1-amine] | – | – | 10000 nM | – | – | – | > 100 mg/kg | > 50 mg/kg |
| Cc1nccn1CC#CCN1CCCC1 [Compound 30, 2-Methyl-1-[4-(pyrrolidinyl)-2-butynyl]-1H-imidazole] | – | – | – | – | – | – | > 100 mg/kg | 5 mg/kg |
| CCN(CC)CC#CCn1ccnc1 [Compound 31, N,N-Diethyl-4-(1H-Imidazol-1-yl)-2-butyn-1-amine] | – | – | 10000 nM | – | – | – | > 100 mg/kg | > 50 mg/kg |
| Cc1cncn1CC#CCN1CCCC1 [Compound 32, 5-Methyl-1[(4-pyrrolidinyl)-2-butynyl]-1H-imidazole] | – | – | 436 nM | – | – | – | > 100 mg/kg | – |
| C(#CCN1CCCC1)CN1CCCC1 [Tremorine, reference compound] | – | – | 370 nM | – | – | 4600 nM | > 100 mg/kg | – |

— US5100909A, “Acetylenic imidazoles having central nervous system activity” (The Upjohn Company, priority 1991, dated 1992)
